# System: Staphylococcus aureus
# Assay: microbe, parasite or virus in culture
# Settings: not given
row,Compound,MIC
1,O=C(O)c1cn(C2CC2)c2cc(N3CCNCC3)c(F)cc2c1=O [CIPROFLOXACIN],0.1 µg/mL

# System: Enterococcus faecalis
# Assay: Minimum inhibitory concentration in vitro against Streptococcus faecalis (ATCC 19433)
# Format: functional
# Settings: not given
row,Compound,MIC
1,N[C@@H]1CN(c2c(F)cc3c(=O)c(C(=O)O)cn(C4CC4F)c3c2Cl)CC12CC2 (stereo in doubt; 37),0.78 µg/mL
2,N[C@@H]1CN(c2c(F)cc3c(=O)c(C(=O)O)cn(C4CC4F)c3c2Cl)CC12CC2 (stereo in doubt; 38),3.13 µg/mL
3,N[C@H]1CN(c2c(F)cc3c(=O)c(C(=O)O)cn(C4CC4F)c3c2Cl)CC12CC2 (stereo in doubt; 39),6.25 µg/mL

# Same assay, conditions: Enterococcus faecalis, ATCC 19433; read-out: MIC
row,Compound,MIC
1,N[C@@H]1CCN(c2c(F)cc3c(=O)c(C(=O)O)cn(C4CC4)c3c2Cl)C1,0.1 µg/mL
2,N[C@@H]1CN(c2c(F)cc3c(=O)c(C(=O)O)cn(C4CC4)c3c2Cl)CC12CC2,0.39 µg/mL
3,N[C@H]1CCN(c2c(F)cc3c(=O)c(C(=O)O)cn([C@H]4C[C@H]4F)c3c2Cl)C1,0.2 µg/mL
4,O=C(O)c1cn(C2CC2)c2cc(N3CCNCC3)c(F)cc2c1=O [CIPROFLOXACIN],1.56 µg/mL

# System: Serratia marcescens
# Assay: Minimum inhibitory concentration in vitro against […]
# Format: functional
# Settings: not given
row,Compound,MIC
1,N[C@@H]1CN(c2c(F)cc3c(=O)c(C(=O)O)cn(C4CC4F)c3c2Cl)CC12CC2 (stereo in doubt; 37),0.1 µg/mL
2,N[C@H]1CN(c2c(F)cc3c(=O)c(C(=O)O)cn(C4CC4F)c3c2Cl)CC12CC2 (stereo in doubt; 39),0.39 µg/mL

# Same assay, conditions: Serratia marcescens; read-out: MIC
row,Compound,MIC
1,N[C@@H]1CCN(c2c(F)cc3c(=O)c(C(=O)O)cn(C4CC4)c3c2Cl)C1,0.025 µg/mL
2,N[C@@H]1CN(c2c(F)cc3c(=O)c(C(=O)O)cn(C4CC4)c3c2Cl)CC12CC2,0.1 µg/mL
3,N[C@H]1CCN(c2c(F)cc3c(=O)c(C(=O)O)cn([C@H]4C[C@H]4F)c3c2Cl)C1,0.05 µg/mL
4,N[C@@H]1CN(c2c(F)cc3c(=O)c(C(=O)O)cn(C4CC4F)c3c2Cl)CC12CC2 (stereo in doubt; 38),0.2 µg/mL
5,O=C(O)c1cn(C2CC2)c2cc(N3CCNCC3)c(F)cc2c1=O [CIPROFLOXACIN],0.05 µg/mL

# System: Proteus vulgaris
# Assay: Minimum inhibitory concentration in vitro against Proteus vulgaris (08601)
# Format: functional
# Settings: not given
row,Compound,MIC
1,N[C@@H]1CN(c2c(F)cc3c(=O)c(C(=O)O)cn(C4CC4F)c3c2Cl)CC12CC2 (stereo in doubt; 37),0.025 µg/mL
2,N[C@@H]1CN(c2c(F)cc3c(=O)c(C(=O)O)cn(C4CC4F)c3c2Cl)CC12CC2 (stereo in doubt; 38),0.1 µg/mL
3,N[C@H]1CN(c2c(F)cc3c(=O)c(C(=O)O)cn(C4CC4F)c3c2Cl)CC12CC2 (stereo in doubt; 39),0.1 µg/mL

# Same assay, conditions: Proteus vulgaris; read-out: MIC
row,Compound,MIC
1,N[C@@H]1CCN(c2c(F)cc3c(=O)c(C(=O)O)cn(C4CC4)c3c2Cl)C1,0.006 µg/mL
2,N[C@@H]1CN(c2c(F)cc3c(=O)c(C(=O)O)cn(C4CC4)c3c2Cl)CC12CC2,0.05 µg/mL
3,N[C@H]1CCN(c2c(F)cc3c(=O)c(C(=O)O)cn([C@H]4C[C@H]4F)c3c2Cl)C1,0.013 µg/mL
4,O=C(O)c1cn(C2CC2)c2cc(N3CCNCC3)c(F)cc2c1=O [CIPROFLOXACIN],0.013 µg/mL

# System: Streptococcus pyogenes
# Assay: Minimum inhibitory concentration in vitro against Streptococcus pyogenes (G36)
# Format: functional
# Settings: not given
row,Compound,MIC
1,N[C@@H]1CN(c2c(F)cc3c(=O)c(C(=O)O)cn(C4CC4F)c3c2Cl)CC12CC2 (stereo in doubt; 37),0.39 µg/mL
2,N[C@@H]1CN(c2c(F)cc3c(=O)c(C(=O)O)cn(C4CC4F)c3c2Cl)CC12CC2 (stereo in doubt; 38),3.13 µg/mL

# Same assay, conditions: Streptococcus pyogenes; read-out: MIC
row,Compound,MIC
1,N[C@@H]1CCN(c2c(F)cc3c(=O)c(C(=O)O)cn(C4CC4)c3c2Cl)C1,0.1 µg/mL
2,N[C@@H]1CN(c2c(F)cc3c(=O)c(C(=O)O)cn(C4CC4)c3c2Cl)CC12CC2,0.78 µg/mL
3,N[C@H]1CCN(c2c(F)cc3c(=O)c(C(=O)O)cn([C@H]4C[C@H]4F)c3c2Cl)C1,0.2 µg/mL
4,O=C(O)c1cn(C2CC2)c2cc(N3CCNCC3)c(F)cc2c1=O [CIPROFLOXACIN],1.56 µg/mL

# System: not listed separately
# Assay: Maximum concentration in plasma was determined by oral administration to rats at 20 mg/kg
# Format: ADME, organism-based
# Set-up: dose 20 mg/kg, route oral
# Settings: rat
row,Compound,Cmax
1,N[C@@H]1CCN(c2c(F)cc3c(=O)c(C(=O)O)cn(C4CC4)c3c2Cl)C1,3900 ng/mL

# System: not listed separately
# Assay: Urinary recovery by oral administration to rats in unchanged form of compound at 20 mg/kg
# Format: ADME, organism-based
# Set-up: dose 20 mg/kg, route oral
# Settings: rat, urine, read-out: Urinary recovery
row,Compound,dose excreted
1,N[C@@H]1CCN(c2c(F)cc3c(=O)c(C(=O)O)cn(C4CC4)c3c2Cl)C1,24%

# System: Rattus norvegicus
# Assay: Urinary recovery by oral administration to rats in conjugate form of compound at 20 mg/kg
# Format: ADME, organism-based, Urine
# Set-up: dose 20 mg/kg, route oral
# Settings: in vivo
row,Compound,Urinary recovery
1,N[C@@H]1CCN(c2c(F)cc3c(=O)c(C(=O)O)cn(C4CC4)c3c2Cl)C1,5%

# System: Staphylococcus aureus
# Assay: Minimum inhibitory concentration in vitro against […] (209P)
# Format: functional
# Settings: not given
row,Compound,MIC
1,N[C@@H]1CN(c2c(F)cc3c(=O)c(C(=O)O)cn(C4CC4F)c3c2Cl)CC12CC2 (stereo in doubt; 37),0.1 µg/mL
2,N[C@@H]1CN(c2c(F)cc3c(=O)c(C(=O)O)cn(C4CC4F)c3c2Cl)CC12CC2 (stereo in doubt; 38),0.78 µg/mL
3,N[C@H]1CN(c2c(F)cc3c(=O)c(C(=O)O)cn(C4CC4F)c3c2Cl)CC12CC2 (stereo in doubt; 39),0.78 µg/mL

# Same assay, conditions: Staphylococcus aureus; read-out: MIC
row,Compound,MIC
1,N[C@@H]1CCN(c2c(F)cc3c(=O)c(C(=O)O)cn(C4CC4)c3c2Cl)C1,0.025 µg/mL
2,N[C@@H]1CN(c2c(F)cc3c(=O)c(C(=O)O)cn(C4CC4)c3c2Cl)CC12CC2,0.1 µg/mL
3,N[C@H]1CCN(c2c(F)cc3c(=O)c(C(=O)O)cn([C@H]4C[C@H]4F)c3c2Cl)C1,0.025 µg/mL

# System: Escherichia coli
# Assay: Minimum inhibitory concentration in vitro against Escherichia coli (NIHJ)
# Format: functional
# Settings: not given
row,Compound,MIC
1,N[C@@H]1CN(c2c(F)cc3c(=O)c(C(=O)O)cn(C4CC4F)c3c2Cl)CC12CC2 (stereo in doubt; 37),0.006 µg/mL
2,N[C@@H]1CN(c2c(F)cc3c(=O)c(C(=O)O)cn(C4CC4F)c3c2Cl)CC12CC2 (stereo in doubt; 38),0.05 µg/mL
3,N[C@H]1CN(c2c(F)cc3c(=O)c(C(=O)O)cn(C4CC4F)c3c2Cl)CC12CC2 (stereo in doubt; 39),0.05 µg/mL

# Same assay, conditions: Escherichia coli; read-out: MIC
row,Compound,MIC
1,N[C@@H]1CCN(c2c(F)cc3c(=O)c(C(=O)O)cn(C4CC4)c3c2Cl)C1,< 0.006 µg/mL
2,N[C@@H]1CN(c2c(F)cc3c(=O)c(C(=O)O)cn(C4CC4)c3c2Cl)CC12CC2,0.05 µg/mL
3,N[C@H]1CCN(c2c(F)cc3c(=O)c(C(=O)O)cn([C@H]4C[C@H]4F)c3c2Cl)C1,0.013 µg/mL

# System: Klebsiella pneumoniae
# Assay: Minimum inhibitory concentration in vitro against Klebsiella pneumoniae (type-2)
# Format: functional
# Settings: not given
row,Compound,MIC
1,N[C@H]1CCN(c2c(F)cc3c(=O)c(C(=O)O)cn([C@H]4C[C@H]4F)c3c2Cl)C1,0.05 µg/mL
2,N[C@@H]1CN(c2c(F)cc3c(=O)c(C(=O)O)cn(C4CC4F)c3c2Cl)CC12CC2 (stereo in doubt; 37),0.05 µg/mL
3,N[C@@H]1CN(c2c(F)cc3c(=O)c(C(=O)O)cn(C4CC4F)c3c2Cl)CC12CC2 (stereo in doubt; 38),0.2 µg/mL
4,N[C@H]1CN(c2c(F)cc3c(=O)c(C(=O)O)cn(C4CC4F)c3c2Cl)CC12CC2 (stereo in doubt; 39),0.39 µg/mL

# Same assay, conditions: Klebsiella pneumoniae; read-out: MIC
row,Compound,MIC
1,N[C@@H]1CCN(c2c(F)cc3c(=O)c(C(=O)O)cn(C4CC4)c3c2Cl)C1,0.025 µg/mL
2,N[C@@H]1CN(c2c(F)cc3c(=O)c(C(=O)O)cn(C4CC4)c3c2Cl)CC12CC2,0.05 µg/mL
3,O=C(O)c1cn(C2CC2)c2cc(N3CCNCC3)c(F)cc2c1=O [CIPROFLOXACIN],0.05 µg/mL

# System: Enterobacter cloacae
# Assay: Minimum inhibitory concentration in vitro against […] (03400)
# Format: functional
# Settings: not given
row,Compound,MIC
1,N[C@@H]1CCN(c2c(F)cc3c(=O)c(C(=O)O)cn(C4CC4)c3c2Cl)C1,0.006 µg/mL

# System: Staphylococcus epidermidis
# Assay: Minimum inhibitory concentration in vitro against […] (56556)
# Format: functional
# Settings: not given
row,Compound,MIC
1,N[C@@H]1CN(c2c(F)cc3c(=O)c(C(=O)O)cn(C4CC4F)c3c2Cl)CC12CC2 (stereo in doubt; 37),0.1 µg/mL
2,N[C@@H]1CN(c2c(F)cc3c(=O)c(C(=O)O)cn(C4CC4F)c3c2Cl)CC12CC2 (stereo in doubt; 38),0.78 µg/mL
3,N[C@H]1CN(c2c(F)cc3c(=O)c(C(=O)O)cn(C4CC4F)c3c2Cl)CC12CC2 (stereo in doubt; 39),0.78 µg/mL

# Same assay, conditions: Staphylococcus epidermidis; read-out: MIC
row,Compound,MIC
1,N[C@@H]1CCN(c2c(F)cc3c(=O)c(C(=O)O)cn(C4CC4)c3c2Cl)C1,0.05 µg/mL
2,N[C@@H]1CN(c2c(F)cc3c(=O)c(C(=O)O)cn(C4CC4)c3c2Cl)CC12CC2,0.1 µg/mL
3,N[C@H]1CCN(c2c(F)cc3c(=O)c(C(=O)O)cn([C@H]4C[C@H]4F)c3c2Cl)C1,0.05 µg/mL
4,O=C(O)c1cn(C2CC2)c2cc(N3CCNCC3)c(F)cc2c1=O [CIPROFLOXACIN],0.2 µg/mL

# System: Pseudomonas aeruginosa
# Assay: Minimum inhibitory concentration in vitro against Pseudomonas aeruginosa (32104)
# Format: functional
# Settings: not given
row,Compound,MIC
1,N[C@@H]1CN(c2c(F)cc3c(=O)c(C(=O)O)cn(C4CC4F)c3c2Cl)CC12CC2 (stereo in doubt; 37),0.39 µg/mL
2,N[C@@H]1CN(c2c(F)cc3c(=O)c(C(=O)O)cn(C4CC4F)c3c2Cl)CC12CC2 (stereo in doubt; 38),1.56 µg/mL
3,N[C@H]1CN(c2c(F)cc3c(=O)c(C(=O)O)cn(C4CC4F)c3c2Cl)CC12CC2 (stereo in doubt; 39),1.56 µg/mL

# Same assay, conditions: Pseudomonas aeruginosa; read-out: MIC
row,Compound,MIC
1,N[C@@H]1CCN(c2c(F)cc3c(=O)c(C(=O)O)cn(C4CC4)c3c2Cl)C1,0.05 µg/mL
2,N[C@@H]1CN(c2c(F)cc3c(=O)c(C(=O)O)cn(C4CC4)c3c2Cl)CC12CC2,0.39 µg/mL
3,N[C@H]1CCN(c2c(F)cc3c(=O)c(C(=O)O)cn([C@H]4C[C@H]4F)c3c2Cl)C1,0.1 µg/mL
4,O=C(O)c1cn(C2CC2)c2cc(N3CCNCC3)c(F)cc2c1=O [CIPROFLOXACIN],0.1 µg/mL

# System: Enterobacter cloacae
# Assay: Minimum inhibitory concentration in vitro against Enterobacter cloacae (03400)
# Format: functional
# Settings: not given
row,Compound,MIC
1,N[C@@H]1CN(c2c(F)cc3c(=O)c(C(=O)O)cn(C4CC4F)c3c2Cl)CC12CC2 (stereo in doubt; 37),0.013 µg/mL
2,N[C@@H]1CN(c2c(F)cc3c(=O)c(C(=O)O)cn(C4CC4F)c3c2Cl)CC12CC2 (stereo in doubt; 38),0.2 µg/mL
3,N[C@H]1CN(c2c(F)cc3c(=O)c(C(=O)O)cn(C4CC4F)c3c2Cl)CC12CC2 (stereo in doubt; 39),0.1 µg/mL

# Same assay, conditions: Enterobacter cloacae; read-out: MIC
row,Compound,MIC
1,N[C@@H]1CN(c2c(F)cc3c(=O)c(C(=O)O)cn(C4CC4)c3c2Cl)CC12CC2,0.05 µg/mL
2,N[C@H]1CCN(c2c(F)cc3c(=O)c(C(=O)O)cn([C@H]4C[C@H]4F)c3c2Cl)C1,0.025 µg/mL

# Source: ChEMBL document CHEMBL1127356, “(Fluorocyclopropyl)quinolones. 2. Synthesis and Stereochemical structure-activity relationships of chiral 7-(7-amino-5-azaspiro[2.4]heptan-5-yl)-1-(2-fluorocyclopropyl)quinolone antibacterial agents” (J Med Chem, 1994)
